Data from US9828350B2, “5,6-dihydro-2H-[1,4]oxazin-3-yl-amine derivatives useful as inhibitors of beta-secretase (BACE)” (Janssen Pharmaceutica NV, priority 2010, dated 2017).
Structures can show the parent of a compound that is named as a salt.

Key:
[1] = molecular target: recombinant BACE1 protein (Homo sapiens, UniProt P56817); test: Biochemical FRET based assay; details: recombinant BACE1 1 μg/ml, 120 minutes at room temperature, pH 5.0; for IC50: read-out: Biochemical FRET based assay pIC50 (converted)
Chain of recombinant BACE1 protein (P56817 46-501): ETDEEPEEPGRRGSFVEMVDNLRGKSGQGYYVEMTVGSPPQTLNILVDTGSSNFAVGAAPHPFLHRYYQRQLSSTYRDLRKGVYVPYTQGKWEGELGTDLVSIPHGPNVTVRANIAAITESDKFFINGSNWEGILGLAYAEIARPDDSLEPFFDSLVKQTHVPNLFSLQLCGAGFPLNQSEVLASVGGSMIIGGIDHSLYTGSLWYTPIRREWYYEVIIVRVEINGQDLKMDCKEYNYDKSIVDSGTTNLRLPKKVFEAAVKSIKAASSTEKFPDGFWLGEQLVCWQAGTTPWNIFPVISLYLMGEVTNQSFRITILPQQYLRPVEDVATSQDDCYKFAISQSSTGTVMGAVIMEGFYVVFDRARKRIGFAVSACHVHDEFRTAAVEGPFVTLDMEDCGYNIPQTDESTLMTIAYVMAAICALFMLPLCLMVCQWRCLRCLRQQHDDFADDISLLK
How it was run: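 Recombinant BACE1 (1 μg/ml final) was incubated 120 minutes at room temperature with […] Mca/Dnp-labelled 13-mer APP Swedish-mutant peptide in 40 mM citrate pH 5.0, 0.04% PEG, 4% DMSO, with or without compound. Cleavage was measured as fluorescence (ex 320/em 405 nm), given as RFU difference between T120 and T0.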

Abeta total = test: Cellular αLisa assay in SKNBE2 cells, Abeta total; format: cell-based, human; details: incubated for 18 hours; for IC50: Homo sapiens, SKNBE2, 18 h, read-out: Cellular αLisa assay in SKNBE2 cells Abetatotal pIC50 (converted)
How it was run: (§1)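 Human neuroblastoma SKNBE2 cells expressing wild-type hAPP695 were incubated with compound for 18 hours. Secreted Abeta total and Abeta 1-42 in medium were quantified by sandwich αLisa: biotinylated AbN/25 on streptavidin donor beads with Ab4G8 (total) or cAb42/26 (1-42) acceptor beads. Light emission read after 1 hour (ex 650 nm, em 615 nm).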

Abeta 1-42 = test: Cellular αLisa assay in SKNBE2 cells, Abeta 1-42; format: cell-based, human; details: incubated for 18 hours; for IC50: Homo sapiens, SKNBE2, 18 h, read-out: Cellular αLisa assay in SKNBE2 cells Abeta 42 pIC50 (converted)
How it was run: as §1

| IC50 [1] [nM] | IC50 (Abeta total) [nM] | IC50 (Abeta 1-42) [nM] | melting point [°C] | Cellular αLisa assay in SKNBE2 cells Abetatotal pIC50 (Abeta total) | Cellular αLisa assay in SKNBE2 cells Abeta 42 pIC50 (Abeta 1-42) | Biochemical FRET based assay pIC50 [1] | Compound |
| --- | --- | --- | --- | --- | --- | --- | --- |
| 26.9 | 10 | 11 | 185.6 |  |  |  | COc1ccc(C(=O)Nc2ccc(F)c([C@@]3(C)N=C(N)CO[C@@H]3F)c2)nc1 [Compound 208] |
|  |  |  | 217.2 |  |  |  | CC1(c2cccc(-c3ccccc3)c2)COCC(N)=N1 (racemic) (as salt: TFA) [Compound 1, rac-5-biphenyl-3-yl-5-methyl-5,6-dihydro-2H-1,4-oxazin-3-amine trifluoroacetate salt] |
| > 30200 |  |  | 179.18 | <5 | <5 |  | CC1(c2cccc(NC(=O)c3ncc(Cl)cc3F)c2)N=C(N)COC1(F)C(F)(F)F (single isomer, unassigned) [Compound 174] |
| 1910 |  |  | 116.4 | 6.48 | 6.47 |  | CC1(c2cc(NC(=O)c3ncc(Cl)cc3F)ccc2F)N=C(N)COC1F (single isomer, unassigned) [Compound 130] |
| 6460 | 851 | 871 | 160.8 |  |  |  | C[C@@]1(c2cccc(NC(=O)c3ccc(Cl)cn3)c2)N=C(N)CO[C@H]1F (single isomer, unassigned) [Compound 85, (S*,S*)—N-[3-(5-amino-2-fluoro-3-methyl-3,6-dihydro-2H-1,4-oxazin-3-yl)phenyl]-5-chloropyridine-2-carboxamide] |
| 44.7 | 14.5 | 14.1 | 181.79 |  |  |  | N#Cc1ccc(C(=O)Nc2ccc(F)c([C@@]3(C4CC4)N=C(N)CO[C@H]3C(F)(F)F)c2)nc1 [Compound 229, (2R,3R)—N-{3-[5-amino-3-cyclopropyl-2-(trifluoromethyl)-3,6-dihydro-2H-1,4-oxazin-3-yl]-4-fluorophenyl}-5-cyanopyridine-2-carboxamide] |
| 9770 |  |  | 227.7 | 5.46 | 5.46 |  | CC1(c2cc(-c3cncnc3)ccc2F)N=C(N)COC1F (single isomer, unassigned) [Compound 75] |
| 55 | 57.5 | 83.2 | 132.03 |  |  |  | Cc1cc(Br)cnc1C(=O)Nc1ccc(F)c([C@@]2(C3CC3)N=C(N)CO[C@@H]2F)c1 [Compound 314] |
| 3890 | 3160 | 3160 | 202.5 |  |  |  | COc1cncc(-c2cccc(C3(C(F)(F)F)COCC(N)=N3)c2)c1 (racemic) [Compound 152, rac-5-[3-(5-methoxypyridin-3-yl)phenyl]-5-(trifluoromethyl)-5,6-dihydro-2H-1,4-oxazin-3-amine] |
| 41.7 | 25.1 | 25.1 | 123.8 |  |  |  | COc1ccc(C(=O)Nc2ccc(F)c([C@@]3(C)N=C(N)CO[C@@]3(F)C(F)(F)F)c2)nc1 [Compound 305] |
|  |  |  | 139.23 | 6.47 | 6.46 | 5.81 | COc1cncc(-c2cccc(C3(C)N=C(N)COC3F)c2)c1 (stereo not shown) [Compound 87] |
| > 30200 | 8910 | 8710 | 187.4 |  |  |  | C[C@]1(c2cc(-c3cncnc3)c(F)cc2F)COC2(CC2)C(N)=N1 [Compound 149] |
| 170 | 21.4 | 24 | 196.4 |  |  |  | COc1cnc(C(=O)Nc2ccc(F)c([C@]3(C4CC4)COCC(N)=N3)c2)cn1 [Compound 299] |
| 5130 | 457 | 513 | 155.6 |  |  |  | CC1(c2cccc(NC(=O)c3ncccc3F)c2)COCC(N)=N1 (racemic) [Compound 6, rac-N-[3-(5-amino-3-methyl-3,6-dihydro-2H-1,4-oxazin-3-yl)phenyl]-3-fluoropyridine-2-carboxamide] |
| 10200 |  |  | 189.64 | 5.95 | 5.92 |  | CC1(c2cccc(NC(=O)c3ccncn3)c2)N=C(N)COC1(F)C(F)(F)F (single isomer, unassigned) [Compound 187] |
| 5750 |  |  | 93.3 | 6.02 | 6.0 |  | CC1(c2cc(NC(=O)c3ncc(Cl)cc3Cl)ccc2F)N=C(N)COC1F (single isomer, unassigned) [Compound 128] |
| 81.3 |  |  | 196.44 | 7.17 | 7.14 |  | CCC1(c2cc(NC(=O)c3cnc(OC)cn3)ccc2F)N=C(N)COC1(F)C(F)(F)F (stereo not shown) [Compound 301] |
| 447 | 347 | 398 | 141.4 |  |  |  | C[C@]1(c2cc(-c3cncc(Cl)c3)c(F)cc2F)N=C(N)CO[C@H]1C(F)(F)F [Compound 255] |

| IC50 [1] [nM] | IC50 (Abeta total) [nM] | IC50 (Abeta 1-42) [nM] | melting point [°C] | Cellular αLisa assay in SKNBE2 cells Abetatotal pIC50 (Abeta total) | Cellular αLisa assay in SKNBE2 cells Abeta 42 pIC50 (Abeta 1-42) | Biochemical FRET based assay pIC50 [1] | Compound |
| --- | --- | --- | --- | --- | --- | --- | --- |
| 2820 |  |  | 189.3 | 6.14 | 6.19 |  | CC1(c2cccc(-c3cncnc3)c2)N=C(N)COC1F (stereo not shown) [Compound 98] |
| 2630 | 646 | 631 | 213.1 |  |  |  | CC1(c2cc(-c3cncnc3)c(F)cc2F)COC2(CC2)C(N)=N1 (stereo not shown) [Compound 72] |
| 1820 |  |  | 204.89 | 5.76 | 5.73 |  | CCC1(c2cc(-c3cncnc3)ccc2F)N=C(N)COC1(F)C(F)(F)F (stereo not shown) [Compound 303] |
|  |  |  | 193.3 |  |  |  | C[C@@]1(c2cccc(-c3cncnc3)c2)COC2(CC2)C(N)=N1 (as salt: fumarate) [Compound 74] |
|  |  |  | 207.3 | 5.71 | 5.68 |  | CC1(c2cccc(NC(=O)c3ccc(Cl)cn3)c2)N=C(N)COC1(F)C(F)(F)F (single isomer, unassigned) [Compound 112] |
|  |  |  |  | 7.66 | 7.57 | 6.05 | Cc1cccnc1C(=O)Nc1ccc(F)c(C2(C)COCC(N)=N2)c1 (stereo not shown) [Compound 30] |
| 33.9 | 11.7 | 12.3 |  |  |  |  | COc1ccc(C(=O)Nc2ccc(F)c([C@@]3(C4CC4)N=C(N)CO[C@H]3C(F)(F)F)c2)nc1 [Compound 231] |
| 219 | 112 | 107 |  |  |  |  | C[C@]1(c2ccnc(-c3cc(Cl)cc(Cl)c3)c2)N=C(N)CO[C@@H]1F (single isomer, unassigned) [Compound 277, (5R*,6R*)-5-[2-(3,5-dichlorophenyl)pyridin-4-yl]-6-fluoro-5-methyl-5,6-dihydro-2H-1,4-oxazin-3-amine] |
|  |  |  |  | 7.0 | 6.92 | 5.69 | COc1cncc(-c2cc(C3(C)COCC(N)=N3)c(F)cc2F)c1 (racemic) [Compound 66] |
| 158 | 57.5 | 58.9 |  |  |  |  | NC1=N[C@@](c2cccc(-c3cncnc3)c2)(C2CC2)[C@H](C(F)(F)F)OC1 [Compound 269] |
|  |  |  |  | 7.38 | 7.27 | 7.11 | CC1(c2cc(NC(=O)c3ncc(Cl)cn3)ccc2F)COCC(N)=N1 (stereo not shown) [Compound 144] |
|  |  |  |  | 7.33 | 7.31 | 6.33 | C[C@@]1(c2cc(NC(=O)c3ccc(Cl)cc3)ccc2F)COCC(N)=N1 [Compound 41] |
| 32.4 | 4.9 | 5.62 |  |  |  |  | N#Cc1cnc(C(=O)Nc2cccc([C@@]3(C4CC4)N=C(N)CO[C@H]3C(F)(F)F)c2)c(Cl)c1 [Compound 291] |
| 67.6 | 24.5 | 30.2 |  |  |  |  | CCC1(c2cc(NC(=O)c3ncc(Cl)cc3F)ccc2F)N=C(N)COC1F (stereo not shown) [Compound 283] |
|  |  |  |  | 7.32 | 7.31 | 6.04 | Cc1cnc(C(=O)Nc2ccc(F)c([C@]3(C)COCC(N)=N3)c2)cn1 [Compound 40] |
|  |  |  |  | 6.58 | 6. | 5.12 | CC1(c2cccc(-c3cccc(C#N)c3)c2)COCC(N)=N1 (racemic) [Compound 10] |
| 60.3 | 39.8 | 43.7 |  |  |  |  | NC1=N[C@@](c2cccc(NC(=O)c3ncc(Cl)cc3F)c2)(C2CC2)[C@@H](F)OC1 [Compound 250, (2R,3R)—N-[3-(5-amino-3-cyclopropyl-2-fluoro-3,6-dihydro-2H-1,4-oxazin-3-yl)phenyl]-5-chloro-3-fluoropyridine-2-carboxamide] |
